The source made the active and inactive calls. The calls are words filed in the database; no cut-off is given here.
Assays:
Hexokinase-4 [1] = molecular target: T1, Hexokinase-4 (Homo sapiens, UniProt P35557); assay: Activation of recombinant human liver glucokinase 2 assessed as […] in presence of 5 mM glucose by G6PDH coupled assay
T1 sequence (P35557 whole entry): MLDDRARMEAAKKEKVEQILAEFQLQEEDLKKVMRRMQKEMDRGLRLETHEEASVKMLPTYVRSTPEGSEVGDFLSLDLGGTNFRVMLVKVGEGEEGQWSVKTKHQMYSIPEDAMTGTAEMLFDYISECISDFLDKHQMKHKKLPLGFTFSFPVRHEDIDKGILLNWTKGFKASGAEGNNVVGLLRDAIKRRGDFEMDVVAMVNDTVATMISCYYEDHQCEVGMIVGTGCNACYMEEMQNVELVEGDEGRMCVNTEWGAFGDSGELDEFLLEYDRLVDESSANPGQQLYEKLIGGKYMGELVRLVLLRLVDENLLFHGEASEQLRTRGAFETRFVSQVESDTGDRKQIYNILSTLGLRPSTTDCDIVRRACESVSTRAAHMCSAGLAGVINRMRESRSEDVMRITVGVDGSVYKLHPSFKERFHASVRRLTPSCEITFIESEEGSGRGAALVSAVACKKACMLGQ

Hepatocyte = assay: Increase in glucose uptake in mouse primary hepatocytes assessed as glucose uptake level at 20 uM after 24 hrs by glucose oxidase method relative to control; assay type: functional
[2] = molecular target: T2, Hexokinase-4 (Rattus norvegicus) (UniProt P17712); assay: Activation of glucokinase in rat INS1(832/13) cells assessed as increase in glucose sensitive insulin secretion at 20 uM after 2 hrs in presence of 5.5 mM glucose by AlphaLISA method relative to control; assay type: cell-based
T2 sequence (whole entry): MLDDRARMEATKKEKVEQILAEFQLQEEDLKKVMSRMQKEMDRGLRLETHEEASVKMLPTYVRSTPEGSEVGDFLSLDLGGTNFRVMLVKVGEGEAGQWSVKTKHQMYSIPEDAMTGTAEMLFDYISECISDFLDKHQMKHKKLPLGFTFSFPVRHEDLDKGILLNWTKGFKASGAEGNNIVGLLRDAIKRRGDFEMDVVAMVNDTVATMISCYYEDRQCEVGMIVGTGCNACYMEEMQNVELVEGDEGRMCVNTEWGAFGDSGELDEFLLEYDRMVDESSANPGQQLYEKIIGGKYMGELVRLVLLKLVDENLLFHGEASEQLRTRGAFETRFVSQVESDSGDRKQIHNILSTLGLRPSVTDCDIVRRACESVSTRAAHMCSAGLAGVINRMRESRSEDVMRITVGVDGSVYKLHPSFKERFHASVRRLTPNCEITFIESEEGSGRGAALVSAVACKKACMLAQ

Hexokinase-4 [3] = molecular target: T1, Hexokinase-4; assay: Activation of recombinant human liver glucokinase 2 assessed as assessed as reduction in Km for glucose in presence of 5 mM glucose by G6PDH coupled assay
INS1(832/13) [4] = assay: Cytoprotection in rat INS1(832/13) cells assessed as reduction in streptozocin induced beta cells apoptosis after 20 hrs by MTT based spectrophotometric method; assay type: functional, cell-based; settings: INS-1 832/13, 20 h
INS1(832/13) [5] = assay: Cytoprotection in rat INS1(832/13) cells assessed as reduction in streptozocin induced beta cells apoptosis after 20 hrs by MTT based spectrophotometric method relative to control; assay type: functional; design: scale not given: the % may be the effect or the level left

SMILES	EC50 (Hexokinase-4 [1])	Activity (Hepatocyte)	fold change (FC) [2]	EC50 (Hexokinase-4 [3])	EC50 (INS1(832/13) [4])	Activity (INS1(832/13) [5])
COCCN1CCc2nc(NC(=O)c3cc(Oc4ccc(C(=O)N5CCC5)cc4)cc(O[C@@H](C)COC)c3)sc2C1	210 nM	13%	6.07	–	–	–
C[C@@H](CO)Oc1cc(Oc2ccc(C(=O)N3CCC3)cc2)cc(C(=O)Nc2nc3c(s2)CN(C(=O)OC(C)(C)C)CC3)c1	1300 nM	–	–	–	–	–
COCC(C)Oc1cc(Oc2ccc(S(C)(=O)=O)cc2)cc(C(=O)Nc2nc3c(s2)CN(C(C)C)CC3)c1 (stereo not given)	7080 nM	–	–	–	–	–
COC[C@H](C)Oc1cc(Oc2ccc(C(=O)N3CCC3)cc2)cc(C(=O)Nc2nc3c(s2)CN(c2ncccn2)CC3)c1	170 nM	14%	6.51	–	–	–
COC[C@H](C)Oc1cc(Oc2ccc(C(=O)N3CCC3)cc2)cc(C(=O)Nc2nc3c(s2)CN(c2ccncn2)CC3)c1	490 nM	16%	4.62	–	–	–
CC(C)(C)OC(=O)N1CCc2nc(NC(=O)c3cc(Oc4ccc(S(C)(=O)=O)cc4)cc(OC4CCCC4)c3)sc2C1	180 nM	26%	inactive	–	–	–
CC(C)Oc1cc(Oc2ccc(S(C)(=O)=O)cc2)cc(C(=O)Nc2nc3c(s2)CN(C(=O)OC(C)(C)C)CC3)c1	170 nM	34%	inactive	–	–	–
COC[C@@H](C)Oc1cc(Oc2ccc(C(=O)N3CCC3)cc2)cc(C(=O)Nc2nc3c(s2)CN(C(=O)OC(C)(C)C)CC3)c1	2600 nM	–	–	–	–	–
COC[C@H](C)Oc1cc(Oc2ccc(C(=O)N3CCC3)cc2)cc(C(=O)Nc2nc3c(s2)CN(C(=O)OC)CC3)c1	690 nM	16%	5.68	–	–	–
CCS(=O)(=O)c1ccc(Oc2cc(OC(C)COC)cc(C(=O)Nc3nc4c(s3)CN(C(=O)OC(C)(C)C)CC4)c2)cc1 (stereo not given)	140 nM	34%	inactive	–	–	–
COCC(C)Oc1cc(Oc2ccc(S(C)(=O)=O)cc2)cc(C(=O)Nc2nc3c(s2)CN(c2ccncc2)CC3)c1 (stereo not given)	210 nM	inactive	1.3	–	–	–
COCC(C)Oc1cc(Oc2ccc(S(C)(=O)=O)cc2)cc(C(=O)Nc2nc3c(s2)CCC3)c1 (stereo not given)	100 nM	31%	inactive	–	–	–
COCC(C)Oc1cc(Oc2ccc(S(C)(=O)=O)cc2)cc(C(=O)Nc2nc3c(s2)CCCC3)c1 (stereo not given)	890 nM	31%	inactive	30 nM	700 nM	66%
COCC(C)Oc1cc(Oc2ccc(S(C)(=O)=O)cc2)cc(C(=O)Nc2nc3c(s2)COCC3)c1 (stereo not given)	> 10000 nM	–	–	–	–	–
CCOC(=O)N1CCc2nc(NC(=O)c3cc(Oc4ccc(C(=O)N5CCC5)cc4)cc(O[C@@H](C)COC)c3)sc2C1	230 nM	17%	5.45	–	–	–
COCC(C)Oc1cc(Oc2ccc(C(=O)N3CCC3)nc2)cc(C(=O)Nc2nc3c(s2)CN(C(=O)OC(C)(C)C)CC3)c1 (stereo not given)	870 nM	inactive	5.4	–	–	–
COCC(C)Oc1cc(Oc2ccc(S(C)(=O)=O)cc2)cc(C(=O)Nc2nc3c(s2)CN(c2ccccc2)CC3)c1 (stereo not given)	> 10000 nM	–	–	–	–	–
COCC(C)Oc1cc(Oc2ccc(S(C)(=O)=O)cc2)cc(C(=O)Nc2nc3c(s2)CN(c2cccnc2)CC3)c1 (stereo not given)	1090 nM	–	–	–	–	–
COCC(C)Oc1cc(Oc2ccccc2S(C)(=O)=O)cc(C(=O)Nc2nc3c(s2)CN(C(=O)OC(C)(C)C)CC3)c1 (stereo not given)	> 10000 nM	–	–	–	–	–
COC[C@H](C)Oc1cc(Oc2cc(F)cc(F)c2)cc(C(=O)Nc2nc3c(s2)CN(C(=O)OC(C)(C)C)CC3)c1	200 nM	15%	1.3	–	–	–
COC[C@H](C)Oc1cc(Oc2ccc(C(=O)N3CCC3)cc2)cc(C(=O)Nc2nc3c(s2)CN(c2cc[nH]c(=O)c2)CC3)c1	300 nM	inactive	5.51	–	–	–
CC(C)(C)OC(=O)N1CCc2nc(NC(=O)c3cc(Oc4ccc(S(C)(=O)=O)cc4)cc(OC4CCCCC4)c3)sc2C1	550 nM	29%	inactive	–	–	–
COCC(C)Oc1cc(Oc2ccc(S(=O)(=O)C3CC3)cc2)cc(C(=O)Nc2nc3c(s2)CN(C(=O)OC(C)(C)C)CC3)c1 (stereo not given)	230 nM	–	–	–	–	–

SMILES	EC50 (Hexokinase-4 [1])	Activity (Hepatocyte)	fold change (FC) [2]	EC50 (Hexokinase-4 [3])	EC50 (INS1(832/13) [4])	Activity (INS1(832/13) [5])
COC[C@H](C)Oc1cc(Oc2ccc(C(=O)N3CCC3)c(F)c2)cc(C(=O)Nc2nc3c(s2)CN(C(=O)OC(C)(C)C)CC3)c1	330 nM	19%	1.1	–	–	–
COCC(C)Oc1cc(Oc2cccc(S(C)(=O)=O)c2)cc(C(=O)Nc2nc3c(s2)CN(C(=O)OC(C)(C)C)CC3)c1 (stereo not given)	820 nM	25%	1.14	–	–	–
CC(C)(C)OC(=O)N1CCc2nc(NC(=O)c3cc(OCc4ccccc4)cc(Oc4ccc(S(C)(=O)=O)cc4)c3)sc2C1	7000 nM	21%	inactive	–	–	–
COCC(C)Oc1cc(Oc2ccc(C(=O)N(C)C)cc2)cc(C(=O)Nc2nc3c(s2)CN(C(=O)OC(C)(C)C)CC3)c1 (stereo not given)	90 nM	inactive	1.24	–	–	–
COC[C@H](C)Oc1cc(Oc2ccc(C(=O)N3CCC3)cc2)cc(C(=O)Nc2nc3c(s2)N(C(=O)OC(C)(C)C)CCC3)c1	6080 nM	–	–	–	–	–
COC[C@H](C)Oc1cc(Oc2ccc(C(=O)N3CCC3)cc2)cc(C(=O)Nc2nc3c(s2)CNCC3)c1	1130 nM	–	–	–	–	–
COCC(C)Oc1cc(Oc2ccc(S(C)(=O)=O)cc2)cc(C(=O)Nc2nc3c(s2)C(=O)CCC3)c1 (stereo not given)	> 10000 nM	–	–	–	–	–
COCC(C)Oc1cc(Oc2ccc(S(C)(=O)=O)cc2)cc(C(=O)Nc2nc3c(s2)CN(C(=O)OC(C)(C)C)CC3)c1 (stereo not given)	320 nM	36%	1.72	–	–	–
COCC(C)Oc1cc(Oc2ccc(S(C)(=O)=O)cc2)cc(C(=O)Nc2nc3c(s2)CN(C)CC3)c1 (stereo not given)	8420 nM	–	–	–	–	–
COC[C@H](C)Oc1cc(Oc2ccc(C(=O)N3CCC3)cc2)cc(C(=O)Nc2nc3c(s2)CN(CCO)CC3)c1	4600 nM	–	–	–	–	–
COCC(C)Oc1cc(Oc2ccc(S(C)(=O)=O)cc2)cc(C(=O)Nc2nc3c(s2)CN(C(C)=O)CC3)c1 (stereo not given)	2220 nM	–	–	–	–	–
COCC(C)Oc1cc(Oc2ccc(C(=O)N3CCC3)cc2)cc(C(=O)Nc2nc3c(s2)CN(C(=O)OC(C)(C)C)CC3)c1 (stereo not given)	290 nM	33%	2.29	150 nM	680 nM	180%
COCC(C)Oc1cc(Oc2ccc(S(C)(=O)=O)cc2)cc(C(=O)Nc2nc3c(s2)CN(Cc2ccccc2)CC3)c1 (stereo not given)	> 10000 nM	–	–	–	–	–
CCN1CCc2nc(NC(=O)c3cc(Oc4ccc(S(C)(=O)=O)cc4)cc(OC(C)COC)c3)sc2C1 (stereo not given)	5420 nM	–	–	–	–	–
COCC(C)Oc1cc(Oc2ccc(S(C)(=O)=O)cc2)cc(C(=O)Nc2nc3c(s2)CN(c2ccccn2)CC3)c1 (stereo not given)	890 nM	–	–	–	–	–
COCC(C)Oc1cc(Oc2ccc(S(=O)(=O)N3CCC3)cc2)cc(C(=O)Nc2nc3c(s2)CN(C(=O)OC(C)(C)C)CC3)c1 (stereo not given)	900 nM	inactive	1.37	–	–	–
Cc1cnc(NC(=O)c2cc(Oc3cnc(C(=O)N(C)C)nc3)c3cc(C)oc3c2)cn1 [NERIGLIATIN]	–	–	–	–	2150 nM	114%
CC(C)(C)OC(=O)N1CCc2nc(NC(=O)c3cc(OCC4CCCC4)cc(Oc4ccc(S(C)(=O)=O)cc4)c3)sc2C1	> 10000 nM	–	–	–	–	–
COC[C@H](C)Oc1cc(Oc2ccc(C(=O)N3CCC3)cc2)cc(C(=O)Nc2nc3c(s2)CN(C(=O)N(C)C)CC3)c1	500 nM	21%	3.52	–	–	–
COC[C@H](C)Oc1cc(Oc2ccc(C(=O)N3CCC3)cc2)cc(C(=O)Nc2nc3c(s2)CN(c2ccccn2)CC3)c1	290 nM	15%	2.47	–	–	–
COCC(C)Oc1cc(Oc2ccc(S(C)(=O)=O)nc2)cc(C(=O)Nc2nc3c(s2)CN(C(=O)OC(C)(C)C)CC3)c1 (stereo not given)	200 nM	35%	1.42	–	–	–
COC[C@H](C)Oc1cc(Oc2ccc(C(=O)N3CCC3)cc2)cc(C(=O)Nc2nc3c(s2)CCN(C(=O)OC(C)(C)C)C3)c1	460 nM	13%	2.24	–	–	–
COCCOc1cc(Oc2ccc(S(C)(=O)=O)cc2)cc(C(=O)Nc2nc3c(s2)CN(C(=O)OC(C)(C)C)CC3)c1	2230 nM	–	–	–	–	–
